Legend:
[1] = tested on: disseminated MV4;11-mCLP leukemia; experiment: MV4;11 xenograft model in NSG mice; format: in vivo, mouse
Procedure: The MV4;11 xenograft model was performed as previously described (Etchin, J. et al. Antileukemic activity of nuclear export inhibitors that spare normal hematopoietic cells. Leukemia 27, 66-74 (2013)). Two-million MV4; 11-mCLP cells were injected into the tail vein of 7-week-old female non-obese diabetic-severe combined immuno-deficient (NOD-SCID)Il2rg^−/− (NSG) mice (The Jackson Laboratory) and tumour burden was assessed by bioluminescence imaging (BLI) using an IVIS Spectrum system (Caliper Life Sciences). […] After 30 days, blood counts were obtained (Hemavet 950 F, Drew Scientific) and spleen, femur and peripheral blood cells were collected and analysed by flow cytometry (LSR Fortessa, BD Biosciences) from three mice per group, having the highest, lowest and median BLI value. […] Survival was measured as the time from therapy initiation until moribund state. […]
The MV4;11 xenograft model was performed as previously described (Etchin, J. et al. Antileukemic activity of nuclear export inhibitors that spare normal hematopoietic cells. Leukemia 27, 66-74 (2013)). Two-million MV4;11-mCLP cells were injected into the tail vein of 7-week-old female non-obese diabetic-severe combined immuno-deficient (NOD-SCID)Il2rg-^−/− (NSG) mice (The Jackson Laboratory) and tumour burden was assessed by bioluminescence imaging (BLI) using an IVIS Spectrum system (Caliper Life Sciences). […]

UKE-1 [2] = experiment: Cellular proliferation assay (CellTiter-Glo); settings: Homo sapiens, UKE1
Procedure: (§1) All suspension cells were plated (96-well) in triplicate at 5,000-30,000 cells per well for testing (n=3). Viable cell number was estimated after 3, 7 and 10 days by counting viable cells from one vehicle well, generating a cell dilution series, transferring 20 ml per well in duplicate to a 384-well plate, and performing a linear regression to CellTiter-Glo (Promega) response (SPECTRAmax M3, Molecular Devices). Cells from all wells were also fourfold diluted in media and transferred in duplicate for CellTiter-Glo measurement. On days 3 and 7, an equal volume for all wells was split-back with fresh media and compound, such that the resulting cell density for the vehicle well matched the initial seeding density. For days 7 and 10, estimated cell number represents the split-adjusted theoretical cell number. […] For growth assays with inhibitors, n=3 for each concentration with two independent experiments.

RS4;11 = experiment: Cellular proliferation assay (CellTiter-Glo); settings: Homo sapiens
Procedure: (§2) All suspension cells were plated (96-well) in triplicate at 5,000-30,000 cells per well for testing (n=3). Viable cell number was estimated after 3, 7 and 10 days by counting viable cells from one vehicle well, generating a cell dilution series, transferring 20 ml per well in duplicate to a 384-well plate, and performing a linear regression to CellTiter-Glo (Promega) response (SPECTRAmax M3, Molecular Devices). Cells from all wells were also fourfold diluted in media and transferred in duplicate for CellTiter-Glo measurement. On days 3 and 7, an equal volume for all wells was split-back with fresh media and compound, such that the resulting cell density for the vehicle well matched the initial seeding density. For days 7 and 10, estimated cell number represents the split-adjusted theoretical cell number. HCT116 were plated (96-well) in triplicate at 250 cells per well. Cells were incubated in the presence of vehicle, 1 μM paclitaxel, or compound. On day 7, CellTiter-Blue (Promega) response was measured and values were normalized to vehicle (100% growth) and paclitaxel (0% growth). For growth assays with inhibitors, n=3 for each concentration with two independent experiments.

SET-2 cells = experiment: SET-2 differentiation assay (CD41/CD61 flow cytometry); settings: 50 nM cortistatin A, 3 days; FIG. 3
Procedure: Cell pellets were collected at 4° C., washed three times with cold PBS, and stained with anti-CD61-PE (ab91128) or anti-CD41-PerCP (ab134373) and analyzed by flow cytometry.

Kasumi-1 = experiment: Cellular proliferation assay (CellTiter-Glo); settings: Homo sapiens
Procedure: as §1

SET-2 = experiment: Cellular proliferation assay (CellTiter-Glo); settings: for GI50: Homo sapiens
Procedure: as §1

REH = experiment: Cellular proliferation assay (CellTiter-Glo); settings: Homo sapiens
Procedure: as §1

Jurkat = experiment: Cellular proliferation assay (CellTiter-Glo); settings: Homo sapiens
Procedure: as §1

RL95-2 = experiment: Soft agar growth assay (Alamar Blue); settings: ER-alpha positive, 100 nM cortistatin A
Procedure: (§3) For the 62 cell lines 96 well suspension cell culture plates were prepared. 100 μL of the soft agar bottom layer (0.6% final concentration in complete medium) was poured and left to solidify. 50 μL of the soft agar top layer (0.4% final concentration) containing the corresponding cells and cell number were then added on top, solidified and incubated at 37° C., 10% CO2. After the soft agar had solidified, the test items were added at indicated final concentrations into the inner wells of the plate. Subsequently, the assay was incubated in cell culture incubators for 8 to 14 days. Finally, the assay was developed using Alamar Blue and upon 1-5 h of incubation at 37° C. fluorescence intensity was determined (excitation: 560 nm; emission: 590 nm). As low control, cells were treated with 1E-05M Staurosporine (6fold values). As high control, cells were treated with 0.1% DMSO (solvent control, 6 fold values).
(§4) Raw data were converted into percent soft agar growth relative to high controls (solvent 0.1% DMSO) and low controls (1E-05M Staurosporine), which were set to 100% and 0%, respectively.

A498 = experiment: Soft agar growth assay (Alamar Blue); settings: clear cell renal cell carcinoma, Loss of function VHL mutation (VHL negative), 100 nM cortistatin A
Procedure: as §3, §4

T47D = experiment: Soft agar growth assay (Alamar Blue); settings: Breast cancer, ER-alpha positive, 100 nM cortistatin A
Procedure: as §3, §4

SK.BR-3 = experiment: Soft agar growth assay (Alamar Blue); settings: Breast cancer, HER2 overexpression, 100 nM cortistatin A
Procedure: as §3, §4

ALL-SIL = experiment: Cellular proliferation assay (CellTiter-Glo); settings: Homo sapiens
Procedure: as §1

TF-1 = experiment: Cellular proliferation assay (CellTiter-Glo); settings: Homo sapiens
Procedure: as §2

HCC827 = experiment: Soft agar growth assay (Alamar Blue); settings: Non small cell lung carcinoma, EGFR mutation, 100 nM cortistatin A
Procedure: as §3, §4

ARH-77 = experiment: Cellular proliferation assay (CellTiter-Glo); settings: Homo sapiens
Procedure: as §1

SKNO-1 = experiment: Cellular proliferation assay (CellTiter-Glo); settings: Homo sapiens
Procedure: as §1

CDK8/19 = molecular target: T1, CDK8/19 (Homo sapiens, UniProt P49336); experiment: Recombinant kinome-wide selectivity profiling (wildtype-profiler, ProQinase), 294 recombinant kinases; format: biochemical; settings: 600 nM cortistatin A; FIG. 7A
T1 construct: purchased ProQinase GmbH
T1 sequence (P49336 whole entry): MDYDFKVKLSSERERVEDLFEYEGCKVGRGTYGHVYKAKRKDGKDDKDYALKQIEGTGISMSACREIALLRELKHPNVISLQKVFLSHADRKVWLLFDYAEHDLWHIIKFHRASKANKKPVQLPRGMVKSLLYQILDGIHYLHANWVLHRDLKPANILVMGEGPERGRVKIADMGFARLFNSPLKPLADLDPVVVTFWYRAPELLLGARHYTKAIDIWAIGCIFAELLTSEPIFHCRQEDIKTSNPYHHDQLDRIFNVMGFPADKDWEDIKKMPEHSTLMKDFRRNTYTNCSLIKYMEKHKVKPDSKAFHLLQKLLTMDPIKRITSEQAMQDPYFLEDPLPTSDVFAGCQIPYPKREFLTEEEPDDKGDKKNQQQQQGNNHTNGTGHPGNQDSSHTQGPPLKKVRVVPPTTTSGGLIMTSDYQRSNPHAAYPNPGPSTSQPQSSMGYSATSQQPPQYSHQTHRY
T1 sequence (P24863 whole entry partner): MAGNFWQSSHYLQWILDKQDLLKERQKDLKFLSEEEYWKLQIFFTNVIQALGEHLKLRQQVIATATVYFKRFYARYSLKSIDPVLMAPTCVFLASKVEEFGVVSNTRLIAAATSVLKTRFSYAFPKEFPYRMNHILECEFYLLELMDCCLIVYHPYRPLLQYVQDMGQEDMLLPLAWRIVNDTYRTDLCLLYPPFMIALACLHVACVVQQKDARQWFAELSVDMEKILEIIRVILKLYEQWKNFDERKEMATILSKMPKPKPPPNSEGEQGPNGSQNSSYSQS
Excerpt: Recombinant kinome-wide selectivity profiling.

UKE-1 [3] = experiment: Synergy assay with ruxolitinib (Chou-Talalay), UKE-1; format: cell-based, human; settings: combination of cortistatin A with JAK1/2 inhibitor ruxolitinib, FIG. 5
Procedure: SET-2 and UKE-1 cells were co-treated with constant ratios of ruxolitinib to CA, 1 to 1 or 10 to 1, in a 96-well growth assay format with a range of 2-fold dose dilutions of compounds. SET-2 and UKE-1 cells were also treated with ruxolitinib alone or CA alone in a 2-fold dilution series. The Chou-Talalay combination index values at 50% growth inhibition (Fa=0.5) were determined using CalcuSyn software (see Chou, T. C. Cancer Res. 2010 Jan. 15; 70(2):440-6) (FIG. 5).

## CN(C)[C@H]1C[C@@]23CC[C@@]4(O2)C(=CC[C@]2(C)[C@@H](c5ccc6ccncc6c5)CC[C@H]24)C=C3[C@@H](O)[C@@H]1O [Cortistatin A, cortistatin A]
[1]; MV4;11 AML mice, Day 30, FIG. 10
  leukemia cells in the lungs (haematoxylin and eosin staining): fewer leukemia cells in the lungs
[1]; female NSG mice, once daily IP for 15 days, measured 37 days after injection of cells, FIG. 6
  spleen weight: prevents spleen weight increase
UKE-1 [2]
  GI50: 7 nM
RS4;11
  GI50: 3 nM
SET-2 cells
  differentiation of SET-2 cells (percent of cells with megakaryocytic markers CD41 and CD61): induces differentiation of SET-2 cells
Kasumi-1
  GI50: 95 nM
SET-2; SET-2
  GI50: 4 nM
SET-2; SET-2, 240 h
  GI50: 4 nM
SET-2; dose-dependent, FIG. 4
  proliferation of SET-2 cells (theoretical cell number versus days of treatment): inhibits the proliferation of SET-2 cells
REH
  GI50: 1 nM
Jurkat
  GI50: 155 nM
RL95-2
  % growth rel. to vehicle: 16%
A498
  % growth rel. to vehicle: 51%
T47D
  % growth rel. to vehicle: 48%
SK.BR-3
  % growth rel. to vehicle: 22%
ALL-SIL
  GI50: 2 nM
TF-1
  GI50: 350 nM
HCC827
  % growth rel. to vehicle: 23%
ARH-77
  GI50: 16 nM
SKNO-1; SKNO-1
  GI50: 1 nM
SKNO-1; SKNO-1, 240 h
  GI50: 1 nM
CDK8/19
  kinase selectivity (kinase activity percent remaining, 294 recombinant kinases): selectively inhibits CDK8/19
UKE-1 [3]
  combination index (synergy) for inhibition of proliferation: synergizes

— patent US20180135134A1, “TARGETED SELECTION OF PATIENTS FOR TREATMENT WITH CORTISTATIN DERIVATIVES” (President and Fellows of Harvard College, priority 2015, published 2018)
